Measured values published in publication PMC11354370, “Inducing Receptor Degradation as a Novel Approach to Target CC Chemokine Receptor 2 (CCR2)” (International Journal of Molecular Sciences, 2024).
Like-named read-outs stand apart in the source and are kept apart here. Peptide text beside a SMILES is read from it. * marks the point of attachment. Cbz = O=C(OCc1ccccc1)*

Experiments:
CCR2-HaloTag-HiBiT [1] = assay: Lytic HiBiT assay with inhibitor pretreatment (2 h) then vehicle or HaloPROTAC3 (3 h); assay type: cell-based, human; settings: 5 µg plasmid; for HaloPROTAC3-mediated CCR2 degradation after pretreatment with the inhibitor: inhibitor 2 h pretreatment, then 1 µM HaloPROTAC3 3 h
Procedure: To investigate the mechanism of action of HaloPROTAC3-induced degradation of CCR2-HaloTag-HiBiT, we pretreated the cells with a variety of inhibitors. […] After 2 h, the cells were treated with vehicle or HaloPROTAC3 (1µM) and degradation was measured after 3 h of HaloPROTAC3 treatment or vehicle control.
Next, we explored whether degradation occurs via the proteasomal or the lysosomal pathway. […] Finally, we included cycloheximide as an inhibitor of protein synthesis.
Fractional RLU values were calculated from the resulting baseline-corrected values by normalizing all values at a given time point to the vehicle-control value. For lytic HiBiT assays, data are presented as % of vehicle-control; for real-time HiBiT assays, data are presented as fractional RLUs, which corresponds to the ratio between the baseline-corrected RLU values of a compound and the RLU values of the vehicle at any given time point. […] To calculate the degradation rate (K) from real-time HiBiT assays, the degradation curves were fitted to a one-phase exponential decay model following the equation Y = (Y0 − Plateau)e^−Kt + Plateau.

CCR2-HaloTag-HiBiT [2] = biological target: T1, CCR2-HaloTag-HiBiT (UniProt P0A3G2+P41597, A155T/A167V/A172T/A224E/C128F/C176G/D78G/E160K/E257K/H272N/K175M/K195N/L47V/L88M/N227D/S58T/T264A/Y273L/Y87F); assay type: cell-based, human; settings: for Dmax ± SEM (maximal degradation): determined at 1 µM, negative values represent an increase in CCR2 levels
CCR2-HaloTag-HiBiT [3] = biological target: T1, CCR2-HaloTag-HiBiT; assay type: cell-based, human
CCR2-HaloTag-HiBiT [4] = biological target: T1, CCR2-HaloTag-HiBiT; assay type: cell-based, human; settings: 1 µM pretreatment 3 h, then 60 nM CCL2; HEK293T CCR2-HaloTag-HiBiT
CCR2-HaloTag-HiBiT [5] = biological target: T2, CCR2-HaloTag-HiBiT (Homo sapiens, UniProt P41597); assay type: cell-based
T2 construct: host or cells: A549 cells, lentiviral transduction, single-cell clones #25, #26, #27
From the text: While the HiBiT luminescence approach provides a good platform for high-throughput screening of targeted protein degradation, integral membrane protein degradation studies benefit from information about their localization. […] To mitigate the need for transfection, we transduced A549 cells with lentiviral particles for stable integration of expression cassettes for CCR2-HaloTag-HiBiT expression constructs, followed by antibiotic selection and limiting dilution to generate single-cell clones.
A549 cells were seeded at 400,000 cells per well in 6 well dishes to be approximately 50% confluent the next day. For seeding 1.5 mL of cell-containing medium was used. A total of 500 µL of lentiviral particles and 1.6 µL of polybrene (Sigma-Aldrich, Merck, Darmstadt, Germany) were added on top, and cells were incubated overnight. The next day, cells were washed two to three times in PBS and a growth medium containing 100 µg/mL of hygromycin B at 100 µg/mL was added. Cells were incubated until non-transduced cells were dead or until transduced cells were confluent (in which case they were split into a bigger flask in a hygromycin selection medium). After selection, cells were diluted to 0.5 cells/200 µL in a growth medium containing 20% FCS, and 96 well plates were seeded with 200 µL per well. Single-cell clones were grown back up to bigger populations and screened by immunofluorescence for HiBiT expression.
A549 CCR2b-HALO-HiBiT expressing cells were seeded onto 384-well plates suitable for high-throughput microscopy (PerkinElmer, Groningen, The Netherlands; Corning, NY, USA) with a density ranging from 2000–4000 cells per well. The next day, plates were treated with different concentrations of HaloPROTAC3 or ent-HaloPROTAC3 using a Tecan D300e digital dispenser. […] Cells were then washed three times in PBS and simultaneously permeabilized and blocked for an hour using a modified blocking buffer (0.1% Triton (v/v), 1% BSA (w/v) (Sigma, A7030, Merck, Darmstadt, Germany)). […] Plates were imaged on either Yokogawa CV7000 or CV8000 systems with appropriate settings for detection of each relevant channel. Images were analyzed using Columbus image analysis.

CCR2-HaloTag-HiBiT [6] = biological target: T1, CCR2-HaloTag-HiBiT; assay: xCELLigence label-free impedance assay, CCL2 stimulation of HEK293T cells transfected with CCR2-HaloTag-HiBiT; settings: HEK293T cells expressing CCR2-HaloTag-HiBiT

T1 sequence (P41597+P0A3G2 fused with the stated changes): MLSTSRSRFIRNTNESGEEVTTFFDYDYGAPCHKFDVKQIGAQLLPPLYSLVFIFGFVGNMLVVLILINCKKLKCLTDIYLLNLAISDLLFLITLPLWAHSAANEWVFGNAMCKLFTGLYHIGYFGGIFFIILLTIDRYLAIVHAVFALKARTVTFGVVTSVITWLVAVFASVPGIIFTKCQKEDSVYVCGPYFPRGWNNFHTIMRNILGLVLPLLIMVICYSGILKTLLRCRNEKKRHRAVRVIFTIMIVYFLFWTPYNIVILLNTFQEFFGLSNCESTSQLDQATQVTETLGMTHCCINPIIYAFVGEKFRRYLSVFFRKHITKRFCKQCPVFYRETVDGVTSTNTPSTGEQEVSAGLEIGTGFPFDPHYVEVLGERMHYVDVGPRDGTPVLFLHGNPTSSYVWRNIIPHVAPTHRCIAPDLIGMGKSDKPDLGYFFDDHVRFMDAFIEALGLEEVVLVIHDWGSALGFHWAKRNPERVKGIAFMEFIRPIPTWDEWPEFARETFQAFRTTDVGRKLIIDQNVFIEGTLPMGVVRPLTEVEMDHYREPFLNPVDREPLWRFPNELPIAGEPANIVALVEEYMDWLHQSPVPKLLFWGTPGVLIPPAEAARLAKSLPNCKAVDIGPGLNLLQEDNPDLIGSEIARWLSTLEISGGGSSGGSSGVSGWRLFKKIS
T2 sequence (P41597 other isoform, or with tags, fused parts or gaps): as the sequence (P41597+P0A3G2 fused with the stated changes) above

CC(C)C[C@@H](C=O)NC(=O)[C@H](CC(C)C)NC(=O)[C@H](CC(C)C)NC(=O)OCc1ccccc1 [MG-132] (Cbz-Leu-Leu-Leu-aldehyde)
HaloPROTAC3-mediated CCR2 degradation after pretreatment with the inhibitor (CCR2-HaloTag-HiBiT [1]): partially or fully recovered | reduction in CCR2 levels, exclusive treatment with inhibitor (CCR2-HaloTag-HiBiT [1]; inhibitor 2 h then vehicle 3 h): not observed

Cc1ncsc1-c1ccc(CNC(=O)[C@@H]2C[C@@H](O)CN2C(=O)[C@H](C(C)C)N2Cc3ccccc3C2=O)c(OCCOCCOCCOCCCCCCCl)c1 [HaloPROTAC3]
decrease in CCR2 levels (luminescent signal) compared to vehicle control (CCR2-HaloTag-HiBiT [2]; 1 µM, 24 h, 5 µg plasmid): ~ 35% | CCR2 degraded, time course (CCR2-HaloTag-HiBiT [2]; 1 µM, after 4 h, 5 µg plasmid (Figure S4)): Approximately 20% | CCR2 degraded, time course (CCR2-HaloTag-HiBiT [2]; 1 µM, after 24 h, 5 µg plasmid (Figure S4)): 26% | CCR2 degraded, time course (maximum degradation) (CCR2-HaloTag-HiBiT [2]; 1 µM, by 6 h, 5 µg plasmid (Figure S4)): 24% | pDC50 ± SEM (apparent potency of degradation) (CCR2-HaloTag-HiBiT [2]; 24 h, 5 µg plasmid): 7.4 ± 0.01 | DC50 (CCR2-HaloTag-HiBiT [2]; 24 h, 5 µg plasmid, read-out: DC50 (apparent degradation potency) (converted)): 42 nM | Dmax ± SEM (maximal degradation) (CCR2-HaloTag-HiBiT [2]; 24 h): 38 ± 5% | degradation of CCR2-HaloTag-HiBiT depending on the protein expression levels (CCR2-HaloTag-HiBiT [2]; summary over lytic and real-time HiBiT assays (Figure 2 and Figure 3)): 30–80% | degradation achieved after 3 h treatment (CCR2-HaloTag-HiBiT [3]; 1 µM (Figure 3B,F)): > 70% | degradation rate compared with cycloheximide on its own (CCR2-HaloTag-HiBiT [3]; 1 µM HaloPROTAC3 in absence or presence of 10 µM cycloheximide): higher than that determined by cycloheximide on its own | degradation rate (Kdeg) (CCR2-HaloTag-HiBiT [3]; 1 µM, 1 µg plasmid): 0.000131 ± 1.1e-05 s⁻¹ | maximal degradation at 24 h (CCR2-HaloTag-HiBiT [3]; 1 µM, 1 µg plasmid): 89 ± 2% | degradation reached after 9 h of treatment up to 24 h (CCR2-HaloTag-HiBiT [3]; 1 µM, 3 µg plasmid): ≥ 90% | maximal degradation at 24 h (CCR2-HaloTag-HiBiT [3]; 1 µM, 3 µg plasmid): 76 ± 4% | time Dmax was maintained (CCR2-HaloTag-HiBiT [3]; 1 µM, 3 µg plasmid): ~ 15 h | degradation rate (Kdeg) (CCR2-HaloTag-HiBiT [3]; 1 µM, 3 µg plasmid, one-phase exponential decay): 0.000144 ± 1.1e-05 s⁻¹ | degradation rate (Kdeg) (CCR2-HaloTag-HiBiT [3]; 1 µM, 5 µg plasmid): 0.000114 ± 4.72e-05 s⁻¹ | maximal degradation at 24 h (CCR2-HaloTag-HiBiT [3]; 1 µM, 5 µg plasmid): 60 ± 6% | degradation potency (pDmax50) (CCR2-HaloTag-HiBiT [3]; 3 µg plasmid, Dmax at each concentration): 6.7 ± 0.1 | CCR2 degradation by HaloPROTAC3 in the absence of inhibitor (CCR2-HaloTag-HiBiT [1]; 1 µM HaloPROTAC3, 3 h): 32% | remaining CCL2 response (AUC first 20 min, normalized to 60 nM CCL2 alone) (CCR2-HaloTag-HiBiT [4]): 25 ± 19% | maximal degradation (HiBiT antibody signal) (CCR2-HaloTag-HiBiT [5]; A549 clone #25, 1 µM, 24 h): 39% | DC50 (CCR2-HaloTag-HiBiT [5]; A549 clone #25, 24 h): 17.1 nM | reduction of CCR2-HaloTag-HiBiT levels (HiBiT antibody signal) (CCR2-HaloTag-HiBiT [5]; A549 clone #26, 1 µM, 24 h): approximately 80% | DC50 (CCR2-HaloTag-HiBiT [5]; A549 clone #26, 24 h): 18.1 nM | pDC50 (CCR2-HaloTag-HiBiT [5]; A549 clone #26, 24 h): 7.8 ± 0.1 | reduction of CCR2-HaloTag-HiBiT levels (HiBiT antibody signal) (CCR2-HaloTag-HiBiT [5]; A549 clone #27, 1 µM, 24 h): approximately 80% | DC50 (CCR2-HaloTag-HiBiT [5]; A549 clone #27, 24 h): 11.8 nM | pDC50 (CCR2-HaloTag-HiBiT [5]; A549 clone #27, 24 h): 8.0 ± 0.2

CO/C1=C\C(C)=C\[C@@H](C)[C@@H](O)[C@@H](C)C/C(C)=C/C=C/[C@H](OC)[C@@H]([C@@H](C)[C@@H](O)[C@H](C)[C@@]2(O)C[C@@H](O)[C@H](C)[C@@H](C(C)C)O2)OC1=O [Bafilomycin-A1, Bafilomycin A1]
increase in CCR2-HaloTag-HiBiT levels, exclusive treatment with inhibitor (CCR2-HaloTag-HiBiT [1]; inhibitor 2 h then vehicle 3 h): > 30%

COc1cc(C(=O)O)ccc1NC(=O)[C@@H]1N[C@@H](CC(C)(C)C)[C@](C#N)(c2ccc(Cl)cc2F)[C@H]1c1cccc(Cl)c1F [idasanutlin]
HaloPROTAC3-mediated CCR2 degradation after pretreatment with the inhibitor (CCR2-HaloTag-HiBiT [1]): neither pomalidomide nor idasanutlin had an effect

C[C@@H]1C[C@@H]([C@H](O)CC2CC(=O)NC(=O)C2)C(=O)[C@@H](C)C1 [cycloheximide]
native degradation rate (Knative) of CCR2-HaloTag-HiBiT (CCR2-HaloTag-HiBiT [3]; 10 µM cycloheximide, up to 24 h): 0.25 ± 0.01 h⁻¹ | HaloPROTAC3-mediated CCR2 degradation after pretreatment with the inhibitor (CCR2-HaloTag-HiBiT [1]): not affected | reduction in CCR2 levels, exclusive treatment with inhibitor (CCR2-HaloTag-HiBiT [1]; inhibitor 2 h then vehicle 3 h): more than 50%

Cc1ncsc1-c1ccc(CNC(=O)[C@H]2C[C@H](O)CN2C(=O)[C@@H](C(C)C)N2Cc3ccccc3C2=O)c(OCCOCCOCCOCCCCCCCl)c1 [ent-HaloPROTAC3]
decrease in CCR2 levels (luminescent signal) compared to vehicle control (CCR2-HaloTag-HiBiT [2]; 1 µM, 24 h, 5 µg plasmid): comparable to vehicle control | Dmax ± SEM (maximal degradation) (CCR2-HaloTag-HiBiT [2]; 24 h): −1 ± 4% | CCR2 levels upon titration of compound (normalized to vehicle control 100%) (CCR2-HaloTag-HiBiT [2]; multiple concentrations, 24 h, maximal level reached): remained unchanged | CCR2 levels over 24 h (CCR2-HaloTag-HiBiT [3]; 1 µM, all DNA plasmid concentrations (1, 3, 5 µg; Figure S5)): remained unchanged | change of CCR2 levels, multiple concentrations (CCR2-HaloTag-HiBiT [3]; 3 µg plasmid, 24 h): did not change CCR2 levels at any of the concentrations tested | remaining CCL2 response (AUC first 20 min, normalized to 60 nM CCL2 alone) (CCR2-HaloTag-HiBiT [4]): 85 ± 10% | effect on HiBiT immunofluorescence signal (CCR2-HaloTag-HiBiT [5]; 1 µM, 24 h, A549 clones): appeared to increase the signal throughout the cell

CCL2: endogenous chemokine ligand of CCR2
efficacy (Emax) of CCL2 (CCR2-HaloTag-HiBiT [6]): 68 ± 8% | pEC50 of CCL2-induced impedance increase (CCR2-HaloTag-HiBiT [6]): 7.6 ± 0.2 | EC50 (CCR2-HaloTag-HiBiT [6]; read-out: EC50 of CCL2-induced impedance increase): 29 nM

NS(=O)(=O)OC[C@@H]1C[C@@H](n2ccc3c(N[C@H]4CCc5ccccc54)ncnc32)C[C@@H]1O [MLN-4924, Pevonedistat]
HaloPROTAC3-mediated CCR2 degradation after pretreatment with the inhibitor (CCR2-HaloTag-HiBiT [1]): fully prevented | reduction in CCR2 levels, exclusive treatment with inhibitor (CCR2-HaloTag-HiBiT [1]; inhibitor 2 h then vehicle 3 h): 24%

Nc1cccc2c1C(=O)N(C1CCC(=O)NC1=O)C2=O (stereo not shown) [pomalidomide]
HaloPROTAC3-mediated CCR2 degradation after pretreatment with the inhibitor (CCR2-HaloTag-HiBiT [1]): neither pomalidomide nor idasanutlin had an effect

CCN(CC)CCCC(C)Nc1ccnc2cc(Cl)ccc12 (stereo not shown) [chloroquine, Chloroquine diphosphate]
effect on receptor levels, inhibitor on its own (CCR2-HaloTag-HiBiT [1]; inhibitor 2 h then vehicle 3 h): not affected

CC(C)C[C@H](NC(=O)[C@H](Cc1ccccc1)NC(=O)c1cnccn1)B(O)O [bortezomib]
HaloPROTAC3-mediated CCR2 degradation after pretreatment with the inhibitor (CCR2-HaloTag-HiBiT [1]): partially or fully recovered | reduction in CCR2 levels, exclusive treatment with inhibitor (CCR2-HaloTag-HiBiT [1]; inhibitor 2 h then vehicle 3 h): ~ 17%
